Key:
[1] = system: mouse pre-osteoblastic cell MC3T3-E1; assay: Alkaline phosphatase activity in mouse pre-osteoblastic cells; assay type: cell-based
Procedure: To increase number of osteoblastic cells having calcium-deposition activity is important for increasing bone mass. […] The activity is at low level in pre-osteoblastic cells and at high level in osteoblastic cells differentiated form the pre-osteoblastic cells. […] Since final ethanol concentration in the medium is 0.2% (v/v), α-MEM medium containing 0.2% (v/v) ethanol was prepared as a negative control. The cells were inoculated for eight days as changing the medium therewith to fresh medium with or without each sample per three days. Alkaline phosphatase activity was measured using “Alkaline Phospha B-Test Wako” (commercialized by Wako Pure Chemical Industries, Osaka, Japan) according with Kajii et al (Archives of Oral Biology, Vol. 44, pp. 233-241, (1999)). Briefly, to the above described mouse pre-osteoblastic cells washed with 1 ml of 0.25 M sucrose solution three times after removing the medium were added 0.45 ml of 50 mM carbonate salt buffer (pH9.8) containing 1 mM magnesium chloride and 50 mM sucrose and 0.05 ml of 3.4 mM disodium p-nitrophenyl phosphate in due course. The mixture was incubated at 25° C. for five minutes and admixed with 1.5 ml of 0.6N sodium hydroxide as a reaction terminator. Absorbance 405 nm of p-nitrophenol generated by alkaline phosphatase in the resulting mixture was measured, and the obtained values were used as values as alkaline phosphatase activity. […] The experiment was performed by the method according to Experiment 1 except that culture day in the medium containing each sample was three, six or nine, and concentration of each sample was 5, 10 or 20 μM. […] As a negative control, mediums containing ethanol in the above concentration were prepared for calculating relative activity to the activity of each control.

[2] = system: mouse pre-osteoblastic cell MC3T3-E1; assay: Calcium deposition amount by Calcium C Test Wako; assay type: cell-based
Text: Other flavonoid compounds than kaempferol or hesperetin were investigated where they have the same effect or not. Flavone (commercialized by Kanto Kagaku, Tokyo, Japan), apigenin (commercialized by Funakoshi, Co., Ltd., Tokyo, Japan), flavonol (commercialized by Tokyo Kasei Kogyo, Co., Ltd., Tokyo, Japan), quercetin (commercialized by Kanto Kagaku, Tokyo, Japan), kaempferol (commercialized by Funakoshi, Co., Ltd., Tokyo, Japan), rutin (commercialized by Kanto Kagaku, Tokyo, Japan), flavanone (commercialized by Kanto Kagaku, Tokyo, Japan), naringenin (commercialized by Ardrich Corporation), hesperetin (commercialized by Funakoshi, Co., Ltd., Tokyo, Japan), hesperidin (commercialized by Kanto Kagaku, Tokyo, Japan), chalcone (commercialized by Merk Corporation), fuloretin (commercialized by Sigma Corporation), catechin (commercialized by Sigma Corporation), ipriflavone (commercialized by Daito Corporation, Toyama, Japan), taxifolin (commercialized by Funakoshi, Co., Ltd., Tokyo, Japan), sulfuretin (commercialized by Funakoshi, Co., Ltd.; Tokyo, Japan), or cyanidin (commercialized by Funakoshi, Co., Ltd., Tokyo, Japan) was selected as test samples. Alkaline phosphatase activity was measured by the method of Experiment 1. Calcium deposition was measured by usual method using “Calcium C Test Wako” (commercialized by Wako Pure Chemical Industries, Osaka, Japan), briefly, cultured cells were washed with 1 ml of Dulbecco phosphate buffer saline three times after removing the medium. To the resultant was added 0.5 ml of 2N hydrochloric acid to resolve deposited calcium. To 5 μl of the resultant solution were added 0.5 ml of 0.88M monoethanolamine buffer (pH11) and 0.05 ml of 0.63 mM o-cresolphthalein complexone solution (binding to calcium ion to form chelate complex) containing 69 mM 8-quinolinol and mixed. Calcium amount per one hole of the plate was calculated by measuring absorbance 570 nm of the resultants and standardizing with a standard calcium solution. The judgement of alkaline phosphatase activity or calcium deposition amount of each sample was to calculate the relative activity or the relative calcium deposition amount to the negative control (only medium containing 0.2% (v/v) ethanol) and to compare each other.
The enhancement of calcium deposition between kaempferol and ipripfavone were compared. Test samples and their adding manner were same as Experiment 4. Calcium deposition amount was measured by usual method using “Calcium C Test Wako” (commercialized by Wako Pure Chemical Industries, Osaka, Japan); briefly, cultured cells were washed with 1 ml of Dulbecco phosphate buffer saline three times after removing the medium. To the resultant was added 0.5 ml of 2N hydrochloric acid to resolve deposited calcium. To 5 μl of the resolving solution were added 0.5 ml of 0.88M monoethanolamine buffer (pH11) and 0.05 ml of 0.63 mM o-cresolphthalein complexone solution (binding to calcium ion to form chelate complex) containing 69 mM 8-quinolinol and mixed, Calcium amount per one hole of the plate was calculated by measuring absorbance 570 nm of the resultants and standardizing with a standard calcium solution.
Kaempferol or hesperetin in combination with ipriflavone, or a kind of isoflavones, was investigated whether to enhance calcium deposition or not. Methods for preparing samples and culturing the cells were the same method described in Experiment 1 except culturing the cells for five days, Method for measuring calcium was the same method described in Experiment 3 and 5. Final ethanol concentration of the medium containing each sample was adjusted as same concentration.

Rat Femur and Tibia = assay: Enhancing calcium deposition in rat femur and tibia; assay type: in vivo; conditions: rats fed sample in high sucrose feeding stuff for eight weeks
Procedure: The experiment was performed using six three-weeks-aged female Wister rats per one group. The rats were fed with high sucrose feeding stuff containing ingredients listed Table 11 (In the Table, each value means “weight %”.) and one part by weight of each test sample; hesperetin (commercialized by Funakoshi, Co., Ltd., Tokyo, Japan), quercetin (commercialized by Tokyo Kasei Kogyo, Co., Ltd., Tokyo, Japan), α-glycosyl hesperidin (product name “αG HESPERIDINE”, commercialized by Hayashibara Shoji Inc., Okayama, Japan), α-glycosyl rutin (product name “αG RUTIN P”, commercialized by Hayashibara Shoji Inc., Okayama, Japan), or ipriflavone (commercialized by Daito Corporation, Toyama, Japan) (positive control). As a negative control, rats fed with feedstuff containing one part by weight of sucrose replacing test sample were prepared. The rats were allowed to freely take water. The rats were killed after eight weeks, and then, their femurs and tibias were excised. Each femur or tibia dried at 100° C. for about six hours was measured by electric even balance for high precision analysis (product name “HA180M/12QM”, commercialized by A & D Co, Ltd., Tokyo, Japan), and then, each bone was placed into a crucible and burned in an incinerator at 950° C. for six hours. The cinerary resultant was resolved in hydrochloric solution and provided for measuring calcium amount by atomic absorption photometer. Calcium amount per one dried bone was calculated and compared each other.

Question: Which results are given for `COc1ccc([C@@H]2CC(=O)c3c(O)cc(O)cc3O2)cc1O` [Hesperetin]?
Answer: enhancement of alkaline phosphatase activity compared with ipriflavone (FIG. 1) ([1]; MC3T3-E1, 5, 10 or 20 μM, day three, six or nine): equally enhances; Relative Alkaline Phosphatase Activity (%) ([1]; flavonoid comparison, method of Experiment 1, relative to 0.2% (v/v) ethanol negative control): 116%; enhancing calcium deposition in combination with ipriflavone versus single use (FIGS. 3 and 4) ([2]; 5, 10 or 20 μM each, five days culture): a synergy effect was confirmed; Relative Calcium Deposition Amount (%) ([2]; flavonoid comparison, Calcium C Test Wako, relative to 0.2% (v/v) ethanol negative control): 289%; Calcium Content Per One Dried Bone (Rat Femur and Tibia; Femur): 125.1 mg; Dried Bone Mass (Rat Femur and Tibia; Femur): 0.463 g; Calcium Content Per One Dried Bone (Rat Femur and Tibia; Tibia): 109.0 mg; Dried Bone Mass (Rat Femur and Tibia; Tibia): 0.357 g
